The test system of data set [1] is guinea-pig teania coli. In words: Pharmacological test I: calcium-antagonistic activity, inhibition of Ca++-evoked contraction of isolated taenia coli. The class given is cell-based. The following applies: Cavia porcellus, 5 min; 50% inhibition of contraction evoked by CaCl2 (3×10^-4 M); Ca++-free-high-K Krebs solution, 32° C., 5 minutes pre-exposure. As to the method:
The action potentials on the smooth muscles of uterus, teania coli and portal vein are dependent on calcium ion, and therefor these smooth muscle preparations are useful for screening of calcium antagonists. We measured the calcium-antagonistic activity of the compounds by the method using guinea-pig teania coli preparation.
Isolated guinea-pig teania coil was suspended in a 20 ml organ bath with Krebs solution at 32° C. and bubbled with 5% carbon dioxide in oxygen. After equilibration, the muscle was washed with Ca^++ -free Krebs solution, and when the muscle had relaxed to basal level, it was suspended in Ca^++ -free-high-K Krebs solution.
The muscle was exposed to test compounds for 5 minutes before addition of CaCl2, and the contraction evoked by CaCl2 (3×10^-4 M) was recorded isotonically. The calcium-antagonistic activity was represented by the concentration of test compound which elicited 50% inhibition of Ca^++ -evoked contraction (IC50).

Data set [2] concerns platelet aggregation. Nature of the data set: Pharmacological test II: anti-aggregatory activity, collagen or ADP induced platelet aggregation in vitro (platelet rich plasma). To be noted: Oryctolagus cuniculus, 50% inhibition of control response, rabbit PRP, 1 minute preincubation at 37° C., collagen (3 μg/ml) or ADP (3 μM), inducer not given. The class given is cell-based. An excerpt: Blood platelet plays an important role only in hemostasis but also in thrombosis. Platelet hyperaggregability leads to an inclease in the number of circulating platelet aggregates, which may contribute toward the development of cardiac arrythmias, cardiac arrest or myocardial infarction. These cardiovascular diseases can be prevented by inhibition of platelet aggregation.
Blood was obtained from an anesthetized rabbit using 0.1 volumes of 3.8% sodium citrate as anticoagulant. Platelet rich plasma(PRP) was isolated by centrifugation at 650 rpm for 10 minutes at room temperature. After preincubation of PRP (0.25 ml) with various concentrations of test compounds (14 μl) for 1 minute at 37° C., collagen (3 μg/ml:final concentration) or ADP (3 μM:final concentration) was added to induce aggregation and the aggregation profiles were monitored with RIKADENKI six-channel aggregometer. The control experiment contained saline instead of test compound.
The anti-aggregatory activity was represented by the concentration of test compound which elicited 50% inhibition of control response.

Data set [3] is described as follows: Acute toxicity test, oral. To be noted: rat, in vivo, male ddy-SLC, 0.5% tragacanth suspension. As to the method: Male ddy-SLC strain rats (4 weeks of age, weighing 19-21 g) were placed in a breeding room of constant temperature and huminity (23±1° C., 55±5%) and fed freely pellet diet and water ad. libitum for a week. Rats showing normal growth were selected for the test.
Test compounds are suspended in 0.5% tragacanth suspention and administered orally in a dose of 0.5 ml/20 g body weight.

Where a name gives a salt, the structure may show the parent alone.

The term IC50 denotes the concentration that inhibits the measured activity by half. As to `COc1ccc(OCCCCN(C)CCc2ccc(OC)c(OC)c2)c(C2Sc3ccccc3N2C(C)=O)c1` (centres unmarked) [Compound 23], in data set [1], the IC50 was determined as 0.66 µM. With `COc1ccc(OCCCCCCN(C)C2CCCCC2)c(C2Sc3ccccc3N2C(C)=O)c1` (centres unmarked) [Compound 22], in data set [2], the IC50 was 1.1 µM.

For orientation: LD50 means the dose at which mortality reaches 50%. Take `CC(=O)N1c2ccccc2SC1c1cc([N+](=O)[O-])ccc1OCCCN(C)C1CCCCC1` (centres unmarked) [Compound 29]: in data set [2], the IC50 was 3.2 µM. In data set [3], the LD50 is more than 2000 mg/kg. Regarding `CC(=O)N1c2ccccc2SC1c1ccccc1OCCCN(C)C1CCCCC1` (centres unmarked) [Compound 8], 4.6 µM corresponded to half-maximal inhibition in data set [2] (IC50). `COc1cc(C2Sc3ccccc3N2C(C)=O)cc(OC)c1OCCCN(C)C1CCCCC1` (centres unmarked) [Compound 54]: in data set [2], the IC50 was determined as 3.1 µM. Compound `COc1cc(C2Sc3ccccc3N2C(C)=O)cc(OC)c1OCCCCN(C)C1CCCCC1` (centres unmarked) [Compound 55] displayed an IC50 in data set [2] of 2 µM. Compound `COc1ccc(OCCCCCN(C)C2CCCCC2)c(C2Sc3ccccc3N2C(C)=O)c1` (centres unmarked) [Compound 21, 3-Acetyl-2-[2-[5-(N-cyclohexyl-N-methlamino)pentyloxy]-5-methoxyphenyl]benzothiazoline fumarate] gave an IC50 in data set [2] of 1.3 µM.

Consider `COc1ccc(OCCCCN2CCN(CCc3cc(OC)c(OC)c(OC)c3)CC2)c(C2Sc3ccccc3N2C(C)=O)c1` (centres unmarked) [Compound 67], for which the IC50 in data set [1] is 0.47 µM. This compound displayed an LD50 in data set [3] of more than 1000 mg/kg. `CC(=O)N1c2ccccc2SC1c1cc([N+](=O)[O-])ccc1OCCCN1CCC(Cc2ccccc2)CC1` (centres unmarked) [Compound 95] showed an IC50 in data set [2] of 2.7 µM.

`CC(=O)N1c2ccccc2SC1c1cc([N+](=O)[O-])ccc1OCCCNCc1cccnc1` (centres unmarked) [Compound 33]: the IC50 in data set [1] was 0.52 µM. With `COc1ccc(OCCCCN2CCN(CCc3ccc(OC)c(OC)c3)CC2)c(C2Sc3ccccc3N2C(C)=O)c1` (centres unmarked) [Compound 63], the IC50 in data set [1] turned out to be 0.64 µM. In data set [3], this compound gave an LD50 not below 3000 mg/kg.

For the origin of these results see patent US4552969A, “3-Alkanoyl benzothiazoline compounds useful for treating cardiovascular disease” (Santen Pharmaceutical Co., Ltd., priority 1981, dated 1985).
